Reference: ChEMBL document CHEMBL5550210, “Discovery of Novel α,β-Unsaturated Amide Derivatives as Candidate Antifungals to Overcome Fungal Resistance” (J Med Chem, 2024)
Converted amounts (≈) assume the structure as drawn. The source made the active and inactive calls. The calls are words filed in the database; no cut-off is given here.

Experiments:
[1] = test system: Candida albicans; experiment: Fungicidal activity against Candida albicans assessed as inhibition of fungal growth measured after 48 hrs by CLSI protocol based microdilution method; format: functional
[2] = test system: Candida albicans; experiment: Antifungal activity against fluconazole-resistant Candida albicans 904 assessed as downregulation of EFG1 gene expression at 16 ug/ml incubated for 12 hrs by RT-PCR analysis; format: functional, organism-based; details: dose 16.0 µg/ml
[3] = test system: Cryptococcus neoformans; experiment: Antifungal activity against Cryptococcus neoformans CGMCC2.3161 assessed as inhibition of fungal growth by CLSI protocol based microdilution method; format: functional
[4] = test system: Candida albicans; experiment: Antifungal activity against fluconazole-resistant Candida albicans 904 assessed as downregulation of CDR1 gene expression at 16 ug/ml incubated for 16 hrs by RT-PCR analysis; format: functional, organism-based; details: dose 16.0 µg/ml
[5] = target: T1, Lanosterol 14-alpha demethylase (Candida albicans (strain SC5314 / ATCC MYA-2876) (Yeast), UniProt P10613); experiment: Inhibition of CYP51 in Candida albicans SC5314 assessed as increase in lanosterol level at 0.031 ug/ml incubated for 24 hrs by GC-MS analysis relative to control; details: at 0.031 µg/mL
[6] = target: T1, Lanosterol 14-alpha demethylase; experiment: Inhibition of CYP51 in Candida albicans SC5314 assessed as increase in obtusifoliol level at 0.031 ug/ml incubated for 24 hrs by GC-MS analysis relative to control; details: at 0.031 µg/mL
[7] = test system: Candida albicans; experiment: Antifungal activity against fluconazole-resistant Candida albicans 904 assessed as inhibition of fungal biofilm formation incubated for 24 hrs by XTT assay; format: functional, organism-based
[8] = test system: Candida tropicalis; experiment: Antifungal activity against Candida tropicalis CGMCC 2.3739 assessed as inhibition of fungal growth by CLSI protocol based microdilution method; format: functional
[9] = test system: Candida albicans; experiment: Antifungal activity against fluconazole-resistant Candida albicans 904 assessed as downregulation of ERG11 gene expression at 16 ug/ml incubated for 16 hrs by RT-PCR analysis; format: functional, organism-based; details: dose 16.0 µg/ml
[10] = test system: Candida albicans; experiment: Antifungal activity against fluconazole-resistant Candida albicans 904 assessed as downregulation of CDR2 gene expression at 16 ug/ml incubated for 16 hrs by RT-PCR analysis; format: functional, organism-based; details: dose 16.0 µg/ml
[11] = Stability in mouse plasma assessed as parent compound remaining measured at 180 mins; format: ADME, cell-free; details: read-out: Stability
[12] = test system: Candida albicans; experiment: Ratio of MFC for fungicidal activity against Candida albicans to MIC for antifungal activity against Candida albicans; format: functional
[13] = test system: Aspergillus fumigatus; experiment: Antifungal activity against Aspergillus fumigatus CGMCC 3.7795 assessed as inhibition of fungal growth by CLSI protocol based microdilution method; format: functional
[14] = test system: Candida albicans; experiment: Antifungal activity against fluconazole-resistant Candida albicans 904 assessed as inhibition of hyphae formation at 16 ug/ml incubated for 4 hrs by inverted microscopic analysis; format: functional, organism-based; details: dose 16.0 µg/ml
[15] = test system: Candida albicans; experiment: Antifungal activity against fluconazole-resistant Candida albicans 904 assessed as downregulation of MDR1 gene expression at 16 ug/ml incubated for 16 hrs by RT-PCR analysis; format: functional, organism-based; details: dose 16.0 µg/ml
[16] = Acute toxicity in Kunming mouse assessed as behavioral change at 1000 mg/kg,po administrated for 7 days; format: organism-based; details: in vivo, 168 h, time 7 day
[17] = MRTinfinity in Sprague-Dawley rat at 2 mg/kg,iv by LC-MS/MS analysis; format: ADME, organism-based; details: in vivo
[18] = test system: Candida albicans; experiment: Fungicidal activity against fluconazole-resistant Candida albicans 904 assessed as reduction in colony forming units at 32 times MIC incubated for 24 hrs by time-kill curve assay; format: functional
[19] = test system: Candida albicans; experiment: Antifungal activity against Candida albicans SC5314 infected ICR mouse model assessed as reduction in fungal burden in kidney at ip administration for 5 days; format: functional, organism-based; details: time 5.0 day
[20] = test system: Candida albicans; experiment: Antifungal activity against Candida albicans SC5314 assessed as leakage of endogenous substances at 16 ug/ml incubated for 24 hrs by transmission electron microscopic analysis; format: functional, organism-based; details: dose 16.0 µg/ml
[21] = test system: Candida albicans; experiment: Antifungal activity against fluconazole-resistant Candida albicans 904 infected ICR mouse model assessed as reduction in fungal burden in kidney at 10 to 20 mg/kg,ip administration for 5 days; format: functional, organism-based; details: dose 10-20 mg/kg, time 5.0 day
[22] = Acute toxicity in Kunming mouse assessed as animal death at 1000 mg/kg,po administrated for 7 days; format: organism-based; details: in vivo, 168 h, time 7 day
[23] = Oral bioavailability in Sprague-Dawley rat at 5 mg/kg by LC-MS/MS analysis; format: ADME, organism-based; details: in vivo
[24] = MRTinfinity in Sprague-Dawley rat at 5 mg/kg,po by LC-MS/MS analysis; format: ADME, organism-based; details: in vivo
[25] = Acute toxicity in Kunming mouse assessed as increase in body weight at 100 mg/kg,po administrated once daily for 14 days; format: organism-based; details: in vivo, 336 h, time 14 day
[26] = AUC (0 to infinity) in Sprague-Dawley rat at 5 mg/kg,po by LC-MS/MS analysis; format: ADME, organism-based; details: in vivo
[27] = Acute toxicity in Kunming male mouse assessed as liver damage at 100 mg/kg,po administrated for 7 days by hematoxylin and eosin staining based microscopic analysis; format: organism-based; details: in vivo, 168 h, time 7 day
[28] = Clearance in Sprague-Dawley rat at 2 mg/kg,iv by LC-MS/MS analysis; format: ADME, organism-based; details: in vivo
[29] = Acute toxicity in Kunming female mouse assessed as kidney damage at 100 mg/kg,po administrated for 7 days by hematoxylin and eosin staining based microscopic analysis; format: organism-based; details: in vivo, 168 h, time 7 day
[30] = Tmax in Sprague-Dawley rat at 5 mg/kg,po by LC-MS/MS analysis; format: ADME, organism-based; details: in vivo
[31] = Volume of distribution at steady state in Sprague-Dawley rat at 2 mg/kg,iv by LC-MS/MS analysis; format: ADME, organism-based; details: in vivo, read-out: Vdss
[32] = Subacute toxicity in Kunming mouse assessed as behavioral change at 100 mg/kg,po administrated once daily for 14 days; format: organism-based; details: in vivo, 336 h, time 14 day
[33] = Subacute toxicity in Kunming mouse assessed as animal death at 100 mg/kg,po administrated once daily for 14 days; format: organism-based; details: in vivo, 336 h, time 14 day
[34] = Half life in Sprague-Dawley rat at 5 mg/kg,po by LC-MS/MS analysis; format: ADME, organism-based; details: in vivo
[35] = Acute toxicity in Kunming mouse assessed as change in body weight at 1000 mg/kg,po administrated for 7 days; format: organism-based; details: in vivo, 168 h, time 7 day
[36] = Acute toxicity in Kunming male mouse assessed as kidney damage at 100 mg/kg,po administrated for 7 days by hematoxylin and eosin staining based microscopic analysis; format: organism-based; details: in vivo, 168 h, time 7 day
[37] = Half life in Sprague-Dawley rat at 2 mg/kg,iv by LC-MS/MS analysis; format: ADME, organism-based; details: in vivo
[38] = Acute toxicity in Kunming female mouse assessed as liver damage at 100 mg/kg,po administrated for 7 days by hematoxylin and eosin staining based microscopic analysis; format: organism-based; details: in vivo, 168 h, time 7 day
[39] = test system: Candida albicans; experiment: Antifungal activity against Candida albicans SC5314 assessed as fungal cell membrane injury at 16 ug/ml incubated for 24 hrs by transmission electron microscopic analysis; format: functional, organism-based; details: dose 16.0 µg/ml
[40] = test system: Candida albicans; experiment: Antifungal activity against fluconazole-resistant Candida albicans 904 infected ICR mouse model assessed as median survival time at 20 mg/kg,ip administration for 14 days; format: functional; details: time 14 day
[41] = AUC (0 to infinity) in Sprague-Dawley rat at 2 mg/kg,iv by LC-MS/MS analysis; format: ADME, organism-based; details: in vivo
[42] = test system: Candida albicans; experiment: Antifungal activity against fluconazole-resistant Candida albicans 904 infected ICR mouse model assessed as median survival time at 10 mg/kg,ip administration for 14 days; format: functional; details: time 14 day

T1 sequence (P10613 whole entry): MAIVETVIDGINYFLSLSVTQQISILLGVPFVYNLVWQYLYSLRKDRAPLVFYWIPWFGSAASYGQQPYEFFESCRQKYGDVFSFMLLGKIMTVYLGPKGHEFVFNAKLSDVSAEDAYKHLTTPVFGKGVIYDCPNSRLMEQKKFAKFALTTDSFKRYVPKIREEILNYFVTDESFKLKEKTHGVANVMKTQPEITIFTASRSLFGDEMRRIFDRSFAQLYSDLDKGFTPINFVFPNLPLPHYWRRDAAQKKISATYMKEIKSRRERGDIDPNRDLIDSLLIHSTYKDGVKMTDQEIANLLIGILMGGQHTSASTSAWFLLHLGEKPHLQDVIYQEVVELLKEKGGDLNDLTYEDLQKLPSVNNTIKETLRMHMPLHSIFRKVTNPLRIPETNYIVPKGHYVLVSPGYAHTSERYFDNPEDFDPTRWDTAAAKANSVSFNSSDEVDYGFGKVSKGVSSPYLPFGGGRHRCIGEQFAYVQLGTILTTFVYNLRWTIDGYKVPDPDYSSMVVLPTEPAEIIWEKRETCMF

Structure (SMILES): O=C(/C=C/c1ccc(COC(Cn2ccnc2)c2ccc(Cl)cc2Cl)cc1)Nc1ccc(Cl)cc1Cl (configuration not stated)
- MFC [1]: 32 mg/L (≈ 57 µM)
- Activity [2]: Active
- MIC [3]: 0.5 mg/L (≈ 0.891 µM)
- Activity [4]: Active
- inhibition (INH) [5]: Active
- inhibition (INH) [6]: Active
- Activity [7]: Dose-Dependent Effect
- MIC [8]: 2 mg/L (≈ 3.56 µM)
- Activity [9]: Active
- Activity [10]: Active
- remaining at 3 h [11]: 97.8%
- Ratio [12]: 32
- MIC [13]: 0.5 mg/L (≈ 0.891 µM)
- Activity [14]: Active
- Activity [15]: Active

Structure (SMILES): CCCCNC(=O)/C=C/c1ccc(COC(Cn2ccnc2)c2ccc(Cl)cc2Cl)cc1 (configuration not stated)
- Activity [16]: Non-Toxic
- MRT inf [17]: 1.24 h
- Activity [18]: 2 log10CFU/ml
- Activity [19]: Dose-Dependent Effect
- Activity [20]: Active
- MFC [1]: 32 mg/L (≈ 67.7 µM)
- Activity [21]: Active
- Activity [2]: Active
- MIC [3]: 0.5 mg/L (≈ 1.06 µM)
- Activity [4]: Active
- inhibition (INH) [5]: Active
- Activity [22]: Non-Toxic
- bioavailability [23]: 12.8%
- MRT inf [24]: 1.93 h
- Activity [25]: Toxic
- inhibition (INH) [6]: Active
- AUC(0-inf) [26]: 0.452 µg·h/mL
- Activity [27]: Toxic
- clearance [28]: 1.42 L/h/kg
- Activity [29]: Non-Toxic
- Activity [7]: Dose-Dependent Effect
- MIC [8]: 64 mg/L (≈ 135 µM)
- Tmax [30]: 1 h
- Activity [9]: Active
- Vd [31]: 1.76 L/kg
- Activity [32]: Non-Toxic
- Activity [33]: Non-Toxic
- half-life [34]: 1.23 h
- Activity [35]: Non-Toxic
- Activity [36]: Toxic
- Activity [10]: Active
- remaining at 3 h [11]: 102%
- Ratio [12]: 16
- MIC [13]: 0.5 mg/L (≈ 1.06 µM)
- half-life [37]: 1.72 h
- Activity [38]: Toxic
- Activity [39]: Active
- Activity [14]: Active
- MST [40]: 13.52 days
- Activity [15]: Active
- AUC(0-inf) [41]: 1.41 µg·h/mL
- MST [42]: 10 days
